Here are results for 20 compounds from US4153724A, “Benzoyl phenoxy acetic acid derivatives” (Kaken Chemical Co., Ltd., priority 1976, dated 1979).

The test system of data set [1] is Normal mice. Put plainly: Test 1: hypolipidemic activity in normal mice. The format is in vivo, ICR type male mice. The conditions noted are these: 200 mg/kg oral, 1 time adm., 24 h. The method, then: The hypolipidemic activity in normal mice (lowering effect of normal blood lipid level).
In the tests, ICR type male mice (weight: about 35 g) were used in groups of 6 each.
Each active ingredient was suspended in a 1% aqueous solution of Tween-80 (polyoxyethylene sorbitane monoalkylate) (Atlas Co.) and the suspension was orally administrated in a dose of 200 mg/Kg.
After 24 hours from the administration, blood was sampled and the concentration of total cholesterols in blood-plasma was measured by the method described in Clinical chemistry Vol. 22 page 393 (1968) and the concentraton of triglyceride (neutral fat) was measured by Fletcher method (Clinica Chimica Acta) Vol. 10 page 451 (1964).
As the active ingredients, the compounds (I) and ethyl-α-(p-chlorophenoxy)-isobutylate having the formula [drawing 17] were used.
The same tests for hypolipidemic activity (lowering of blood lipid level) were carried out by using the reference compounds (IV).

The subject of data set [2] is Normal mice. Put plainly: Test 1: hypolipidemic activity in normal mice. Particulars: Mus musculus, 24 h, Table 4, reference compounds (IV), 1 time adm. The format is in vivo, ICR type male mice.
A further data set relates to Rats with hyperlipidemia. Put plainly: Test 2: antihyperlipidemic activity in rats with dietary hyperlipidemia. Particulars: 200 mg/kg oral, 4 days adm. In kind it is in vivo, Wister type male rats. The method, then: The antihyperlipidemic activity in rats with dietary hyperlipidemia.
In the tests, Wister type male rats (weight: 140 g) were used in groups of 6 each.
A feed containing 2% of cholesterol, 1% of sodium cholate and 5% of cocconut oil was given for 4 days to cause hyperlipidemia.
Each active ingredient was suspended in a 1% aqueous solution of Tween 80 and the suspension was orally administrated in a dose of 100 mg/Kg or 200 mg/Kg once daily for 4 days starting with the supply of the cholesterol supplemented diet.
After 24 hours from the final administration, blood was sampled and the concentration of total cholesterols and the concentration of triglyceride were measured by the methods of Test 1.

Another data set in a line: Test 3: acute toxicity. The conditions noted are these: mouse, in vivo. The method, then:
In the acute toxicity tests, male mice (weight: 22 to 25 g) were used in groups of 10 each.
Eash active ingredient was dissolved in olive oil and the solution was orally administrated in a volume corresponding to the body weight.
LD50 was calculated by the area method from the mortal percent after 72 hours from the administration.
The compound numbers are the same with those of Tables 1 and 2.

For data set [3] the following is noted: found by the administration of ethyl-α-(p-chlorophenoxy)-isobutyrate; cited from earlier work.
Where [4] appears, read: series (a), comparison with compound 1 (Normal 62.6).
Where [5] appears, read: series (a), comparison with compound 1 (Normal 83.6).
Where [6] appears, read: series (b), comparison with compounds 2-12 (Normal 52.0).
Where [7] appears, read: series (b), comparison with compounds 2-12 (Normal 69.3).
Setting [8] is: read-out: Total cholesterol (lowering of blood lipid level).
[9] abbreviates: read-out: Triglyceride (lowering of blood lipid level).
The mark [10] stands for this setting: series (a), comparison with compound 1 (P-control 141.9).
Setting [11] is: series (a), comparison with compound 1 (P-control 302.4).
[12] abbreviates: series (b), comparison with compounds 2-12 (P-control 92.0, Normal 37.6).
[13] abbreviates: series (b), comparison with compounds 2-12 (P-control 260.0, Normal 57.2).
Where [14] appears, read: Table 3, male mice, oral in olive oil, 72 hours, read-out: LD50 oral.
Setting [15] is: po, Table 4, reference compounds (IV), read-out: LD50.

SMILES strings stand for the structures. Like-named read-outs stand apart in the source and are kept apart here.

For `CCOC(=O)C(C)(C)Oc1ccc(Cl)cc1` [***, ethyl-α-(p-chlorophenoxy)-isobutylate, reference compound], the Decrease of triglyceride worked out at 46.6 ± 7.3 mg/dL in the data set on Normal mice [1] (setting [4]), 46.8 ± 3.5 mg/dL in the data set on Normal mice [1] (setting [6]), 80.9 ± 17.8 mg/dL in the data set on Rats with hyperlipidemia (setting [10]) and 62.5 ± 9.5 mg/dL with Rats with hyperlipidemia (setting [12]). In addition, the results for the Decrease of cholesterol in the data set with Normal mice [1] (setting [5]) and in the data set on Normal mice [1] (setting [7]) were 69.0 ± 5.3 mg/dL and 55.4 ± 3.1 mg/dL, respectively. Moreover, the inhibition in vivo at 200 mg/kg in the data set on Normal mice [2] (setting [8]) came to 15%; in the data set with Normal mice [2] (setting [9]), 10%. The “Serum total cholesterol concentration” value with Rats with hyperlipidemia (setting [11]) was 285.5 ± 25.3 mg/dL; in the data set on Rats with hyperlipidemia (setting [13]), 258.5 ± 16.0 mg/dL. For the same compound, in the data set “Test 3: acute toxicity” (setting [14]), the LD50 at 72 h turned out to be 1500 mg/kg. The “hepatic disease (hepatitis)” value in data set [3] was “found”.
Regarding `CCOC(=O)C(Oc1ccc(C(=O)c2ccc(Cl)cc2)cc1)C1CCCCC1` (centres unmarked) [Invention Compound 1, Ethyl 2-[p-(4-chlorobenzoyl)-phenoxy]-cyclohexyl acetate], the Decrease of triglyceride was 52.2 ± 7.6 mg/dL in the data set on Normal mice [1] (setting [4]) and 69.7 ± 13.8 mg/dL with Rats with hyperlipidemia (setting [10]). Moreover, the Decrease of cholesterol in the data set on Normal mice [1] (setting [5]) worked out at 59.4 ± 4.8 mg/dL. Besides, the “Serum total cholesterol concentration” value in the data set with Rats with hyperlipidemia (setting [11]) turned out to be 126.5 ± 8.1 mg/dL. In “Test 3: acute toxicity” (setting [14]), the LD50 at 72 h worked out at 2500 mg/kg.
On to `CCOC(=O)C(Oc1ccc(C(=O)c2ccc(F)cc2)cc1)C1CCCCC1` (centres unmarked) [Invention Compound 2, Ethyl-2-[p-(4-fluorobenzoyl)-phenoxy]-cyclohexyl acetate], for which the Decrease of triglyceride in the data set with Rats with hyperlipidemia (setting [12]) is 88.5 ± 12.3 mg/dL. Besides, the “Serum total cholesterol concentration” value with Rats with hyperlipidemia (setting [13]) was 215.3 ± 6.7 mg/dL. Further, the LD50 at 72 h in “Test 3: acute toxicity” (setting [14]) amounted to 1000 mg/kg.
As for `CCOC(=O)C(Oc1ccc(C(=O)c2ccccc2)cc1)C1CCCCC1` (centres unmarked) [Invention Compound 3], the Decrease of triglyceride with Normal mice [1] (setting [6]) stood at 60.1 ± 2.8 mg/dL; with Rats with hyperlipidemia (setting [12]), 81.6 ± 7.3 mg/dL. Further, the Decrease of cholesterol with Normal mice [1] (setting [7]) was determined as 66.6 ± 1.9 mg/dL. Besides, the “Serum total cholesterol concentration” value in the data set with Rats with hyperlipidemia (setting [13]) is 211.0 ± 5.5 mg/dL. For the same compound, in the data set “Test 3: acute toxicity” (setting [14]), the LD50 at 72 h was determined as 1000 mg/kg.
Take `CCOC(=O)C(Oc1ccc(C(=O)c2ccc(OC)cc2)cc1)C1CCCCC1` (centres unmarked) [Invention Compound 4]: the Decrease of triglyceride in the data set on Normal mice [1] (setting [6]) was determined as 38.2 ± 2.5 mg/dL; in the data set on Rats with hyperlipidemia (setting [12]) it was 88.7 ± 8.9 mg/dL. For the same compound, the Decrease of cholesterol with Normal mice [1] (setting [7]) was determined as 51.9 ± 2.6 mg/dL. Besides, the “Serum total cholesterol concentration” value in the data set on Rats with hyperlipidemia (setting [13]) was 187.0 ± 18.1 mg/dL. For the same compound, the LD50 at 72 h in “Test 3: acute toxicity” (setting [14]) stood at 2500 mg/kg.
On the same counts, the results for `CCOC(=O)C(Oc1ccc(C(=O)c2cccc(F)c2)cc1)C1CCCCC1` (centres unmarked) [Invention Compound 5] are 60.0 ± 4.2 mg/dL, 90.3 ± 16.8 mg/dL, 54.5 ± 2.6 mg/dL, 147.5 ± 8.3 mg/dL and 3500 mg/kg.
As to `CCOC(=O)C(Oc1ccc(C(=O)c2ccccc2F)cc1)C1CCCCC1` (centres unmarked) [Invention Compound 6], the Decrease of triglyceride with Rats with hyperlipidemia (setting [12]) came to 89.2 ± 15.6 mg/dL. The “Serum total cholesterol concentration” value with Rats with hyperlipidemia (setting [13]) is 243.0 ± 6.1 mg/dL. Further, the LD50 at 72 h in the data set “Test 3: acute toxicity” (setting [14]) is 1000 mg/kg.
Regarding `CCOC(=O)C(Oc1ccc(C(=O)c2cccc(Cl)c2)cc1)C1CCCCC1` (centres unmarked) [Invention Compound 7, Ethyl 2-[p-(3-chlorobenzoyl)-phenoxy]-cyclohexyl acetate], the Decrease of triglyceride was found to be 45.5 ± 5.4 mg/dL in the data set with Normal mice [1] (setting [6]) and 52.1 ± 9.0 mg/dL in the data set with Rats with hyperlipidemia (setting [12]). The Decrease of cholesterol with Normal mice [1] (setting [7]) was found to be 56.4 ± 5.1 mg/dL. Moreover, the “Serum total cholesterol concentration” value with Rats with hyperlipidemia (setting [13]) came out at 123.8 ± 9.1 mg/dL. Besides, the LD50 at 72 h in “Test 3: acute toxicity” (setting [14]) was 2500 mg/kg.
Consider `CCOC(=O)C(Oc1ccc(C(=O)c2ccccc2Cl)cc1)C1CCCCC1` (centres unmarked) [Invention Compound 8], for which the Decrease of triglyceride in the data set on Rats with hyperlipidemia (setting [12]) stood at 75.6 ± 8.3 mg/dL. In addition, the “Serum total cholesterol concentration” value in the data set on Rats with hyperlipidemia (setting [13]) stood at 185.4 ± 7.1 mg/dL. Besides, the LD50 at 72 h in the data set “Test 3: acute toxicity” (setting [14]) stood at 1000 mg/kg.
Take `CCOC(=O)C(Oc1ccc(C(=O)c2ccc(C)cc2)cc1)C1CCCCC1` (centres unmarked) [Invention Compound 9, Ethyl 2-[p-(4-methylbenzoyl)-phenoxy]-cyclohexyl acetate]: the Decrease of triglyceride in the data set with Normal mice [1] (setting [6]) was 56.9 ± 6.1 mg/dL; in the data set with Rats with hyperlipidemia (setting [12]), 58.5 ± 6.7 mg/dL. Further, in the data set on Normal mice [1] (setting [7]), the Decrease of cholesterol is 59.1 ± 3.4 mg/dL. The “Serum total cholesterol concentration” value with Rats with hyperlipidemia (setting [13]) was found to be 188.7 ± 18.4 mg/dL. The LD50 at 72 h in the data set “Test 3: acute toxicity” (setting [14]) turned out to be 3500 mg/kg.
Turning to `CCOC(=O)C(Oc1ccc(C(=O)c2cccc(C)c2)cc1)C1CCCCC1` (centres unmarked) [Invention Compound 10], the Decrease of triglyceride in the data set on Rats with hyperlipidemia (setting [12]) worked out at 73.6 ± 10.0 mg/dL. Moreover, the “Serum total cholesterol concentration” value in the data set with Rats with hyperlipidemia (setting [13]) is 196.1 ± 13.2 mg/dL. The LD50 at 72 h in “Test 3: acute toxicity” (setting [14]) was determined as 3000 mg/kg.
On the same counts, the results for `CCOC(=O)C(Oc1ccc(C(=O)c2ccccc2C)cc1)C1CCCCC1` (centres unmarked) [Invention Compound 11] are 89.4 ± 7.7 mg/dL, 203.5 ± 12.1 mg/dL and 700 mg/kg.
`CCOC(=O)C(Oc1ccc(C(=O)c2ccccc2F)cc1)c1ccccc1` (centres unmarked) [compound 1]: the inhibition in vivo at 200 mg/kg with Normal mice [2] (setting [8]) is 18%; in the data set on Normal mice [2] (setting [9]), 36%. Besides, in the data set “Test 3: acute toxicity” (setting [15]), the LD50 at 72 h was found to be 1500 mg/kg.
With `CCOC(=O)C(Oc1ccc(C(=O)c2cccc(F)c2)cc1)c1ccccc1` (centres unmarked) [compound 3], the inhibition in vivo at 200 mg/kg was 16% in the data set with Normal mice [2] (setting [8]) and 19% in the data set with Normal mice [2] (setting [9]). For the same compound, the LD50 at 72 h in “Test 3: acute toxicity” (setting [15]) is 2000 mg/kg.
On the same counts, the results for `CCOC(=O)C(Oc1ccc(C(=O)c2ccc(F)cc2)cc1)c1ccccc1` (centres unmarked) [compound 5] are 21%, 1% and 1500 mg/kg.
On the same counts, the results for `CCOC(=O)C(Oc1ccc(C(=O)c2ccccc2Cl)cc1)c1ccccc1` (centres unmarked) [compound 7, Ethyl 2-[p-(2-chlorobenzoyl)-phenoxy]phenyl acetate] are 16%, 8% and greater than 10000 mg/kg.
On the same counts, the results for `CCOC(=O)C(Oc1ccc(C(=O)c2ccc(Cl)cc2)cc1)c1ccccc1` (centres unmarked) [compound 11, Ethyl 2-[p-(4-chlorobenzoyl)-phenoxy]phenyl acetate] are 24%, 52% and 3000 mg/kg.
On to `CCOC(=O)C(Oc1ccc(C(=O)c2ccccc2C)cc1)c1ccccc1` (centres unmarked) [compound 13, ethyl 2-[p-(2-methylbenzoyl)-phenoxy] phenyl acetate], for which the results for the inhibition in vivo at 200 mg/kg in the data set with Normal mice [2] (setting [8]) and in the data set on Normal mice [2] (setting [9]) were 27.7% and 41.9%, respectively. For the same compound, the LD50 at 72 h in the data set “Test 3: acute toxicity” (setting [15]) was greater than 2000 mg/kg.
As for `Cc1ccccc1C(=O)c1ccc(OC(C(=O)O)c2ccccc2)cc1` (centres unmarked) [compound 14, 2-[P-(2-methylbenzoyl)-phenoxy]phenyl acetic acid], the results for the inhibition in vivo at 200 mg/kg in the data set on Normal mice [2] (setting [8]) and with Normal mice [2] (setting [9]) were 21% and 2%, respectively.
In the case of `O=C(c1ccccc1)c1ccc(OC(C(=O)O)c2ccccc2)cc1` (centres unmarked) [compound 20], the inhibition in vivo at 200 mg/kg was 19% in the data set on Normal mice [2] (setting [8]) and 7% in the data set on Normal mice [2] (setting [9]). Besides, in the data set “Test 3: acute toxicity” (setting [15]), the LD50 at 72 h was greater than 3000 mg/kg.

The LD50 is the dose expected to kill half of the subjects tested.
